Assay results taken from ChEMBL document CHEMBL4312001, “Combined therapy with Benznidazole and repurposed drugs Clofazimine and Benidipine for chronic Chagas disease” (Eur J Med Chem, 2019).
The source made the active and inactive calls. The calls are words filed in the database; no cut-off is given here.

Columns and labels:
Trypanosoma cruzi [1] = assay: (§1) Antitrypanosomal activity against Trypanosoma cruzi K98 bloodstream form infected in C3H/HeNk mouse assessed as change in QRS morphology at 30 mg/kg/day, po administered via gavage for 30 consecutive days starting from 90 days post infection and measured at 120 days post infection by electrocardiographic analysis (reference value: 25 %); assay type: functional
Trypanosoma cruzi [2] = assay: (§2) Antitrypanosomal activity against Trypanosoma cruzi K98 bloodstream form infected in C3H/HeNk mouse assessed as reduction in cardiac tissue inflammation at 30 to 75 mg/kg/day, po administered via gavage for 30 consecutive days starting from 90 days post infection and measured at 180 days post infection by hematoxylin and eosin staining based assay; assay type: functional, organism-based
[3] = Toxicity in C3H/HeNk mouse infected with Trypanosoma cruzi K98 bloodstream form assessed as decrease in body weight at 30 mg/kg/day, po administered via gavage for 30 consecutive days starting from 90 days post infection measured at 150 days post infection; assay type: organism-based; settings: in vivo
[4] = Toxicity in C3H/HeNk mouse infected with Trypanosoma cruzi K98 bloodstream form assessed as decrease in body weight at 30 mg/kg/day, po administered via gavage for 30 consecutive days starting from 90 days post infection measured at 150 days post infection in presence of benznidazole; assay type: organism-based; settings: in vivo
[5] = Toxicity in C3H/HeNk mouse infected with Trypanosoma cruzi K98 bloodstream form assessed as decrease in body weight at 15 mg/kg/day, po administered via gavage for 30 consecutive days starting from 90 days post infection measured at 150 days post infection in presence of benznidazole; assay type: organism-based; settings: in vivo
Trypanosoma cruzi [6] = assay: as §2, with “parasite burden in skeletal muscle” for “cardiac tissue inflammation”, “qRT-PCR analysis” for “hematoxylin and eosin staining based assay”; assay type: functional, organism-based
Trypanosoma cruzi [7] = assay: (§3) Antitrypanosomal activity against Trypanosoma cruzi K98 bloodstream form infected in C3H/HeNk mouse assessed as reduction in parasite burden in cardiac muscle at 30 to 75 mg/kg/day, po administered via gavage for 30 consecutive days starting from 90 days post infection and measured at 180 days post infection by qRT-PCR analysis; assay type: functional, organism-based
[8] = Toxicity in C3H/HeNk mouse infected with Trypanosoma cruzi K98 bloodstream form assessed as decrease in body weight at 75 mg/kg/day, po administered via gavage for 30 consecutive days starting from 90 days post infection measured at 150 days post infection; assay type: organism-based; settings: in vivo
Trypanosoma cruzi [9] = assay: as §1, with “at 75” for “at 30”; assay type: functional
Trypanosoma cruzi [10] = assay: as §1, with “170” for “120”; assay type: functional
Trypanosoma cruzi [11] = assay: as §1, with “as” for “as change in”, “at 75” for “at 30”, “at 170” for “at 120”; assay type: functional
Trypanosoma cruzi [12] = assay: (§4) Antitrypanosomal activity against Trypanosoma cruzi K98 bloodstream form infected in C3H/HeNk mouse assessed as effect on RR interval at 30 to 75 mg/kg/day, po administered via gavage for 30 consecutive days starting from 90 days post infection and measured at 120 to 170 days post infection by electrocardiographic analysis; assay type: functional, organism-based
Trypanosoma cruzi [13] = assay: as §4, with “PR” for “RR”; assay type: functional, organism-based
Trypanosoma cruzi [14] = assay: as §4, with “QT” for “RR”; assay type: functional, organism-based
Trypanosoma cruzi [15] = assay: as §4, with “heart rate” for “RR interval”; assay type: functional, organism-based
Trypanosoma cruzi [16] = assay: as §4, with “heart rate duration” for “RR interval”; assay type: functional, organism-based
Vero = assay: Cytotoxicity against African green monkey Vero cells at 0.5 to 20 uM after 72 hrs by propidium iodide staining based flow cytometric analysis; assay type: cell-based; settings: chlorocebus sabaeus
Trypanosoma cruzi [17] = assay: as §3, with “blood” for “cardiac muscle”; assay type: functional, organism-based
Trypanosoma cruzi [18] = assay: as §2, with “skeletal” for “cardiac”, “at” for “at 30 to”; assay type: functional, organism-based
[19] = Toxicity in C3H/HeNk mouse infected with Trypanosoma cruzi K98 bloodstream form assessed as body weight gain at 75 mg/kg/day, po administered via gavage for 30 consecutive days starting from 90 days post infection measured up to 120 days post infection; assay type: organism-based; settings: in vivo
[20] = Toxicity in C3H/HeNk mouse infected with Trypanosoma cruzi K98 bloodstream form assessed as body weight gain at 30 mg/kg/day, po administered via gavage for 30 consecutive days starting from 90 days post infection measured up to 120 days post infection; assay type: organism-based; settings: in vivo
Trypanosoma cruzi [21] = assay: as §2, with “inflammation at 15 mg/kg/day, po” for “inflammation at 30 to 75 mg/kg/day, po”, “post infection in presence of benznidazole by hematoxylin” for “post infection by hematoxylin”; assay type: functional, organism-based
Trypanosoma cruzi [22] = assay: (§5) Antitrypanosomal activity against Trypanosoma cruzi K98 bloodstream form infected in C3H/HeNk mouse assessed as reduction in parasite burden in skeletal muscle at 15 mg/kg/day, po administered via gavage for 30 consecutive days starting from 90 days post infection and measured at 180 days post infection in presence of benznidazole by qRT-PCR analysis; assay type: functional, organism-based
Trypanosoma cruzi [23] = assay: as §5, with “cardiac” for “skeletal”; assay type: functional, organism-based
Trypanosoma cruzi [24] = assay: (§6) Antitrypanosomal activity against Trypanosoma cruzi K98 bloodstream form infected in C3H/HeNk mouse assessed as effect on heart rate duration at 15 mg/kg/day, po administered via gavage for 30 consecutive days starting from 90 days post infection and measured at 120 to 170 days post infection in presence of benznidazole by electrocardiographic analysis; assay type: functional, organism-based
Trypanosoma cruzi [25] = assay: as §6, with “rate” for “rate duration”; assay type: functional, organism-based
Trypanosoma cruzi [26] = assay: as §6, with “QT interval” for “heart rate duration”; assay type: functional, organism-based
Trypanosoma cruzi [27] = assay: as §6, with “PR interval” for “heart rate duration”; assay type: functional, organism-based
Trypanosoma cruzi [28] = assay: as §6, with “RR interval” for “heart rate duration”; assay type: functional, organism-based
Trypanosoma cruzi [29] = assay: (§7) Antitrypanosomal activity against Trypanosoma cruzi K98 bloodstream form infected in C3H/HeNk mouse assessed as change in QRS morphology at 15 mg/kg/day, po administered via gavage for 30 consecutive days starting from 90 days post infection and measured at 170 days post infection in presence of benznidazole by electrocardiographic analysis (reference value: 25 %); assay type: functional
Trypanosoma cruzi [30] = assay: as §7, with “120” for “170”; assay type: functional
Trypanosoma cruzi [31] = assay: as §5, with “blood” for “skeletal muscle”; assay type: functional, organism-based
Trypanosoma cruzi [32] = assay: Antitrypanosomal activity against Trypanosoma cruzi K98 bloodstream form infected in C3H/HeNk mouse assessed as adipocytes replacement in skeletal muscle by measuring number of adipocyte at 15 mg/kg/day, po administered via gavage for 30 consecutive days starting from 90 days post infection and measured at 180 days post infection in presence of benznidazole by hematoxylin and eosin staining based …; assay type: functional
[33] = Toxicity in C3H/HeNk mouse infected with Trypanosoma cruzi K98 bloodstream form assessed as body weight gain at 15 mg/kg/day, po administered via gavage for 30 consecutive days starting from 90 days post infection measured up to 120 days post infection in presence of benznidazole; assay type: organism-based; settings: in vivo
Trypanosoma cruzi [34] = assay: as §6, with “30” for “15”; assay type: functional, organism-based
Trypanosoma cruzi [35] = assay: as §6, with “rate” for “rate duration”, “30” for “15”; assay type: functional, organism-based
Trypanosoma cruzi [36] = assay: as §6, with “QT interval” for “heart rate duration”, “30” for “15”; assay type: functional, organism-based
Trypanosoma cruzi [37] = assay: as §6, with “PR interval” for “heart rate duration”, “30” for “15”; assay type: functional, organism-based
Trypanosoma cruzi [38] = assay: as §4, with “at 30 mg/kg/day, po” for “at 30 to 75 mg/kg/day, po”, “post infection in presence of benznidazole by electrocardiographic” for “post infection by electrocardiographic”; assay type: functional, organism-based
Trypanosoma cruzi [39] = assay: as §7, with “30” for “15”; assay type: functional
Trypanosoma cruzi [40] = assay: as §7, with “30” for “15”, “120” for “170”; assay type: functional
Trypanosoma cruzi [41] = assay: as §5, with “cardiac” for “skeletal”, “30” for “15”; assay type: functional, organism-based
Trypanosoma cruzi [42] = assay: as §5, with “30” for “15”; assay type: functional, organism-based
Trypanosoma cruzi [43] = assay: as §5, with “blood” for “skeletal muscle”, “30” for “15”; assay type: functional, organism-based
Trypanosoma cruzi [44] = assay: as §2, with “at 30 mg/kg/day, po” for “at 30 to 75 mg/kg/day, po”, “post infection in presence of benznidazole by hematoxylin” for “post infection by hematoxylin”; assay type: functional, organism-based
Trypanosoma cruzi [45] = assay: Antitrypanosomal activity against Trypanosoma cruzi K98 bloodstream form infected in C3H/HeNk mouse assessed as adipocytes replacement in skeletal muscle by measuring number of adipocyte at 30 mg/kg/day, po administered via gavage for 30 consecutive days starting from 90 days post infection and measured at 180 days post infection in presence of benznidazole by hematoxylin and eosin staining based …; assay type: functional
[46] = Toxicity in C3H/HeNk mouse infected with Trypanosoma cruzi K98 bloodstream form assessed as body weight gain at 30 mg/kg/day, po administered via gavage for 30 consecutive days starting from 90 days post infection measured up to 120 days post infection in presence of benznidazole; assay type: organism-based; settings: in vivo

O=C(Cn1ccnc1[N+](=O)[O-])NCc1ccccc1 [BENZNIDAZOLE]
Activity (Trypanosoma cruzi [1]): 0% | Activity (Trypanosoma cruzi [2]): Active | Activity [3]: Non-Toxic | Activity [4]: Non-Toxic | Activity [5]: Non-Toxic | Activity (Trypanosoma cruzi [6]): Active | Activity (Trypanosoma cruzi [7]): Active | Activity [8]: Toxic | Activity (Trypanosoma cruzi [9]): 0% | Activity (Trypanosoma cruzi [10]): 0% | Activity (Trypanosoma cruzi [11]): 80% | Activity (Trypanosoma cruzi [12]): inactive | Activity (Trypanosoma cruzi [13]): inactive | Activity (Trypanosoma cruzi [14]): inactive | Activity (Trypanosoma cruzi [15]): inactive | Activity (Trypanosoma cruzi [16]): inactive | Activity (Vero): Non-Toxic | Activity (Trypanosoma cruzi [17]): Active | Activity (Trypanosoma cruzi [18]): inactive | Activity [19]: Non-Toxic | Activity [20]: Non-Toxic

COC(=O)C1=C(C)NC(C)=C(C(=O)O[C@@H]2CCCN(Cc3ccccc3)C2)[C@@H]1c1cccc([N+](=O)[O-])c1.Cl
Activity (Trypanosoma cruzi [21]): Active | Activity (Trypanosoma cruzi [22]): Active | Activity (Trypanosoma cruzi [23]): inactive | Activity (Trypanosoma cruzi [24]): inactive | Activity (Trypanosoma cruzi [25]): inactive | Activity (Trypanosoma cruzi [26]): inactive | Activity (Trypanosoma cruzi [27]): inactive | Activity (Trypanosoma cruzi [28]): inactive | Activity (Trypanosoma cruzi [29]): 50% | Activity (Trypanosoma cruzi [30]): 50% | Activity (Vero): Non-Toxic | Activity (Trypanosoma cruzi [31]): Active | Activity (Trypanosoma cruzi [32]): 1 - 3 | Activity [33]: Non-Toxic

CC(C)/N=c1\cc2n(-c3ccc(Cl)cc3)c3ccccc3nc-2cc1Nc1ccc(Cl)cc1 [CLOFAZIMINE]
Activity (Trypanosoma cruzi [34]): inactive | Activity (Trypanosoma cruzi [35]): inactive | Activity (Trypanosoma cruzi [36]): inactive | Activity (Trypanosoma cruzi [37]): inactive | Activity (Trypanosoma cruzi [38]): inactive | Activity (Trypanosoma cruzi [39]): 0% | Activity (Trypanosoma cruzi [40]): 0% | Activity (Trypanosoma cruzi [41]): inactive | Activity (Trypanosoma cruzi [42]): Active | Activity (Vero): Non-Toxic | Activity (Trypanosoma cruzi [43]): Active | Activity (Trypanosoma cruzi [44]): inactive | Activity (Trypanosoma cruzi [45]): 1 - 3 | Activity [46]: Non-Toxic
